Assay results from US4808711A, “Cephalosporin derivatives” (Sankei Pharmaceutical Co., Ltd., priority 1985, dated 1989).
Converted amounts (≈) assume the structure as drawn. Where two headings read alike, the source gives them in different places.

What was measured:
Assay type in all cases: cell-based
[1] = test system: K. pneumoniae ATCC27736; test: MIC, K. pneumoniae ATCC27736
Method: (§1) The minimum inhibition concentrations (MIC) of the compounds obtained by the present invention were measured according to the standard method of Japanese Chemotherapy Association.

[2] = test system: P. rettgeri ATCC14505; test: MIC, P. rettgeri ATCC14505
Method: as §1

[3] = test system: S. marcescens IFO12648; test: MIC, S. marcescens IFO12648
Method: as §1

[4] = test system: C. freundii IFO12681; test: MIC, C. freundii IFO12681
Method: as §1

[5] = test system: S. typhimurium IFO 12529; test: MIC, S. typhimurium IFO 12529
Method: as §1

[6] = test system: S. typhi 1099-77; test: MIC, S. typhi 1099-77
Method: as §1

[7] = test system: S. epidermidis ATCC14990; test: MIC, S. epidermidis ATCC14990
Method: as §1

[8] = test system: P. vulgaris ATCC6380; test: MIC, P. vulgaris ATCC6380
Method: as §1

[9] = test system: P. maltophilia ATCC13637; test: MIC, P. maltophilia ATCC13637; details: Stenotrophomonas maltophilia
Method: as §1

[10] = test system: P. mirabilis IFO3849; test: MIC, P. mirabilis IFO3849
Method: as §1

[11] = test system: S. aureus ATCC25923; test: MIC, S. aureus ATCC25923; details: Staphylococcus aureus
Method: as §1

[12] = test system: S. boyadii CDC 2064-59; test: MIC, S. boyadii CDC 2064-59
Method: as §1

[13] = test system: S. flexneri 2a CDC 4807-62; test: MIC, S. flexneri 2a CDC 4807-62
Method: as §1

[14] = test system: S. aureus TASAKI; test: MIC, S. aureus TASAKI; details: Staphylococcus aureus
Method: as §1

[15] = test system: S. flexneri Y NCTC 9730; test: MIC, S. flexneri Y NCTC 9730
Method: as §1

[16] = test system: S. paratyphi A 144-12-93; test: MIC, S. paratyphi A 144-12-93
Method: as §1

[17] = test system: E. cloacae ATCC13047; test: MIC, E. cloacae ATCC13047; details: Enterobacter cloacae
Method: as §1

[18] = test system: S. newport 563; test: MIC, S. newport 563
Method: as §1

[19] = test system: E. coli ATCC25922; test: MIC, E. coli ATCC25922
Method: as §1

[20] = test system: S. paratyphi B; test: MIC, S. paratyphi B
Method: as §1

[21] = test system: S. typhimurium ATCC13311; test: MIC, S. typhimurium ATCC13311
Method: as §1

[22] = test system: S. paratyphi C 33-76; test: MIC, S. paratyphi C 33-76
Method: as §1

[23] = test system: S. aureus 209P JC-1; test: MIC, S. aureus 209P JC-1
Method: as §1

[24] = test system: S. aureus Smith; test: MIC, S. aureus Smith
Method: as §1

[25] = test system: B. subtilis ATCC6633; test: MIC, B. subtilis ATCC6633
Method: as §1

[26] = test system: S. sonnei SH72-415; test: MIC, S. sonnei SH72-415
Method: as §1

[27] = test system: E. coli NIHJ JC-2; test: MIC, E. coli NIHJ JC-2
Method: as §1

[28] = test system: S. faecalis IFO3826; test: MIC, S. faecalis IFO3826
Method: as §1

[29] = test system: S. anatum 677-69; test: MIC, S. anatum 677-69
Method: as §1

[30] = test system: P. putida ATCC12633; test: MIC, P. putida ATCC12633; details: Pseudomonas putida
Method: as §1

[31] = test system: P. vulgaris ATCC6398; test: MIC, P. vulgaris ATCC6398
Method: as §1

[32] = test system: P. aeruginosa ATCC9721; test: MIC, P. aeruginosa ATCC9721; details: Pseudomonas aeruginosa
Method: as §1

[33] = test system: P. fluorescens ATCC13525; test: MIC, P. fluorescens ATCC13525
Method: as §1

[34] = test system: S. dysenteriae 4379-60; test: MIC, S. dysenteriae 4379-60
Method: as §1

[35] = test system: P. cepacia ATCC25416; test: MIC, P. cepacia ATCC25416
Method: as §1

[36] = Klebsiella pneumoniae, read-out: MIC
[37] = Providencia rettgeri, read-out: MIC
[38] = Serratia marcescens, read-out: MIC
[39] = Citrobacter freundii, read-out: MIC
[40] = Salmonella enterica, read-out: MIC
[41] = Staphylococcus epidermidis, read-out: MIC
[42] = Proteus vulgaris, read-out: MIC
[43] = Proteus mirabilis, read-out: MIC
[44] = Shigella flexneri, read-out: MIC
[45] = Shigella flexneri, NCTC9730, read-out: MIC
[46] = Escherichia coli, read-out: MIC
[47] = Staphylococcus aureus, read-out: MIC
[48] = Shigella sonnei, SH72415, read-out: MIC
[49] = Escherichia coli, NIHJJC2, read-out: MIC
[50] = Enterococcus faecalis, read-out: MIC
[51] = Salmonella enterica, 67769, read-out: MIC
[52] = Burkholderia cepacia, read-out: MIC

`Cc1nnc(SCC2=C(C(=O)O)N3C(=O)C(NC(=O)C(=NOCC(=O)NNC(=O)c4ccc(O)c(O)c4)c4csc(N)n4)C3SC2)s1` (stereo not shown) [Example 59] was tested, and the MIC [1, 36] was 0.012 µg/mL (≈ 0.0166 µM), the MIC [2, 37] was 0.78 µg/mL (≈ 1.08 µM) and the MIC [3, 38] was 0.39 µg/mL (≈ 0.54 µM). For the same compound, the MIC [4, 39] was 0.78 µg/mL (≈ 1.08 µM), the MIC [5, 40] was 0.1 µg/mL (≈ 0.139 µM) and the MIC ([6]; Salmonella enterica, TYPHI) was ≤ 0.006 µg/mL. The MIC [7, 41] was 0.39 µg/mL (≈ 0.54 µM), the MIC [8, 42] was 0.39 µg/mL (≈ 0.54 µM) and the MIC [9] was 0.78 µg/mL (≈ 1.08 µM). It also gave an MIC [10, 43] of 0.39 µg/mL (≈ 0.54 µM), an MIC ([11]; S. aureus ATCC25923, read-out: MIC) of 0.78 µg/mL (≈ 1.08 µM) and an MIC [12] of 0.39 µg/mL (≈ 0.54 µM). For the same compound, the MIC [13, 44] was 0.2 µg/mL (≈ 0.277 µM), the MIC ([14]; S. aureus TASAKI, standard method of Japanese Chemotherapy Association, read-out: MIC) was 1.56 µg/mL (≈ 2.16 µM) and the MIC [15, 45] was 0.78 µg/mL (≈ 1.08 µM). The MIC ([16]; Salmonella enterica, PARATYPHI) was 0.025 µg/mL (≈ 0.0346 µM), the MIC [17] was 1.56 µg/mL (≈ 2.16 µM) and the MIC [18, 40] was 0.05 µg/mL (≈ 0.0693 µM). The MIC [19, 46] was 0.1 µg/mL (≈ 0.139 µM), the MIC ([20]; Salmonella enterica, PARATYPHI) was 0.012 µg/mL (≈ 0.0166 µM) and the MIC [21, 40] was 0.1 µg/mL (≈ 0.139 µM). It also gave an MIC ([22]; Salmonella enterica, PARATYPHI) of 0.012 µg/mL (≈ 0.0166 µM), an MIC ([23]; Staphylococcus aureus, S. aureus 209P JC-1, read-out: MIC) of 0.39 µg/mL (≈ 0.54 µM) and an MIC [24, 47] of 0.78 µg/mL (≈ 1.08 µM). For the same compound, the MIC ([25]; Bacillus subtilis, B. subtilis ATCC6633, read-out: MIC) was 0.39 µg/mL (≈ 0.54 µM), the MIC [26, 48] was 0.05 µg/mL (≈ 0.0693 µM) and the MIC [27, 49] was 0.39 µg/mL (≈ 0.54 µM). The MIC [28, 50] was > 100 µg/mL, the MIC [29, 51] was 0.025 µg/mL (≈ 0.0346 µM) and the MIC [30] was 0.78 µg/mL (≈ 1.08 µM). For the same compound, the MIC [31, 42] was 0.05 µg/mL (≈ 0.0693 µM), the MIC ([32]; P. aeruginosa ATCC9721, read-out: MIC) was 0.1 µg/mL (≈ 0.139 µM) and the MIC ([33]; Pseudomonas fluorescens, read-out: MIC) was 12.5 µg/mL (≈ 17.3 µM). The MIC ([34]; Shigella dysenteriae, 437960) was 0.05 µg/mL (≈ 0.0693 µM) and the MIC [35, 52] was 0.39 µg/mL (≈ 0.54 µM).
`CO[C@@]1(NC(=O)C(C(=O)O)c2ccc(O)cc2)C(=O)N2C(C(=O)O)=C(CSc3nnnn3C)CO[C@@H]21` (stereo partly shown) [LMOX, latamoxiceph] gave an MIC [1, 36] of 0.05 µg/mL (≈ 0.0961 µM), an MIC [2, 37] of 0.1 µg/mL (≈ 0.192 µM) and an MIC [3, 38] of 0.2 µg/mL (≈ 0.384 µM). For the same compound, the MIC [4, 39] was 0.1 µg/mL (≈ 0.192 µM), the MIC [5, 40] was 0.1 µg/mL (≈ 0.192 µM) and the MIC ([6]; Salmonella enterica, TYPHI) was 0.05 µg/mL (≈ 0.0961 µM). It also gave an MIC [7, 41] of 6.25 µg/mL (≈ 12 µM), an MIC [8, 42] of 0.2 µg/mL (≈ 0.384 µM) and an MIC [9] of 25 µg/mL (≈ 48 µM). For the same compound, the MIC [10, 43] was 0.1 µg/mL (≈ 0.192 µM), the MIC ([11]; ATCC25923) was 3.13 µg/mL (≈ 6.01 µM) and the MIC [12] was 3.13 µg/mL (≈ 6.01 µM). The MIC [13, 44] was 0.1 µg/mL (≈ 0.192 µM), the MIC [14] was 3.13 µg/mL (≈ 6.01 µM) and the MIC [15, 45] was 3.13 µg/mL (≈ 6.01 µM). For the same compound, the MIC ([16]; Salmonella enterica, PARATYPHI) was 0.2 µg/mL (≈ 0.384 µM), the MIC [17] was 0.78 µg/mL (≈ 1.5 µM) and the MIC [18, 40] was 0.1 µg/mL (≈ 0.192 µM). It also gave an MIC [19, 46] of 0.2 µg/mL (≈ 0.384 µM), an MIC ([20]; Salmonella enterica, PARATYPHI) of 0.05 µg/mL (≈ 0.0961 µM) and an MIC [21, 40] of 0.05 µg/mL (≈ 0.0961 µM). For the same compound, the MIC ([22]; Salmonella enterica, PARATYPHI) was 0.025 µg/mL (≈ 0.048 µM), the MIC ([23]; Staphylococcus aureus, 209P) was 3.13 µg/mL (≈ 6.01 µM) and the MIC [24, 47] was 6.25 µg/mL (≈ 12 µM). For the same compound, the MIC ([25]; Bacillus subtilis, ATCC6633) was 3.13 µg/mL (≈ 6.01 µM), the MIC [26, 48] was 0.1 µg/mL (≈ 0.192 µM) and the MIC [27, 49] was 0.2 µg/mL (≈ 0.384 µM). For the same compound, the MIC [28, 50] was > 100 µg/mL, the MIC [29, 51] was 0.1 µg/mL (≈ 0.192 µM) and the MIC [30] was 25 µg/mL (≈ 48 µM). The MIC [31, 42] was 0.2 µg/mL (≈ 0.384 µM), the MIC ([32]; ATCC9721) was 3.13 µg/mL (≈ 6.01 µM) and the MIC ([34]; Shigella dysenteriae, 437960) was 0.05 µg/mL (≈ 0.0961 µM). The MIC [35, 52] was 6.25 µg/mL (≈ 12 µM).
Work on cephazoline [CAZ] yielded an MIC [1] of 0.78 µg/mL, an MIC [2] of 0.39 µg/mL and an MIC [3] of 0.39 µg/mL. For the same compound, the MIC [4] was 0.39 µg/mL, the MIC [5] was 0.78 µg/mL and the MIC ([6]; S. typhi 1099-77) was 0.39 µg/mL. For the same compound, the MIC [7] was 6.25 µg/mL, the MIC [8] was 0.2 µg/mL and the MIC [10] was 0.2 µg/mL. The MIC [13] was 0.2 µg/mL, the MIC [15] was 0.39 µg/mL and the MIC ([16]; S. paratyphi A 144-12-93) was 1.56 µg/mL. It also gave an MIC [18] of 0.78 µg/mL, an MIC [19] of 0.39 µg/mL and an MIC ([20]; S. paratyphi B) of 0.78 µg/mL. It also gave an MIC [21] of 0.39 µg/mL, an MIC ([22]; S. paratyphi C 33-76) of 0.1 µg/mL and an MIC ([23]; S. aureus 209P JC-1) of 0.78 µg/mL. The MIC [24] was 6.25 µg/mL, the MIC ([25]; B. subtilis ATCC6633) was 6.25 µg/mL and the MIC [26] was 0.39 µg/mL. For the same compound, the MIC [27] was 0.78 µg/mL, the MIC [28] was > 100 µg/mL and the MIC [29] was 0.78 µg/mL. The MIC [31] was 0.1 µg/mL, the MIC [33] was 3.13 µg/mL and the MIC ([34]; S. dysenteriae 4379-60) was 0.2 µg/mL. The MIC [35] was 6.25 µg/mL.
